Results on 54 compounds are retold here after US11098071B2, “GPR84 receptor antagonist and use thereof” (SHANGHAI INSTITUTE OF MATERIA MEDICA, CHINESE ACADEMY OF …, priority 2017, dated 2021).

T1 sequence (Q9NQS5 whole entry): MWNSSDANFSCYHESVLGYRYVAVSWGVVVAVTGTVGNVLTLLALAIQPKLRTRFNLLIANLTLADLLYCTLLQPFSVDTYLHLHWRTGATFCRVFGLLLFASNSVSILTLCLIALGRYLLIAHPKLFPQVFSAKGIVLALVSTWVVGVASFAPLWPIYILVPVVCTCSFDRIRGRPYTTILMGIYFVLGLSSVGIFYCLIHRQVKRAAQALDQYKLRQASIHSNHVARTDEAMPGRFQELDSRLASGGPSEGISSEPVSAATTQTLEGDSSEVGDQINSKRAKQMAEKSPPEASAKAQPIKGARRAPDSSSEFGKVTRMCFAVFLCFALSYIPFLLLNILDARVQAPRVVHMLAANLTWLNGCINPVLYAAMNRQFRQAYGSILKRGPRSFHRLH

One assay concerns the target T1, GPR84 (Homo sapiens, UniProt Q9NQS5).
T1 construct: expressed in transfected cells; host or cells: HEK293
The experiment in a line: GPR84 calcium flow model (antagonism of agonist 6-OAU, Fluo-4 fluorescence). The class given is cell-based.
Conditions: not given
On the procedure: GPR84 antagonistic activity of the compounds of the invention was determined.
The human GPR84 cell line was obtained by transfecting a HEK293 cell line with a plasmid encoding GPR84 and Gα16 proteins. Fluorescent dye Fluo-4AM was purchased from Invitrogen.
Intracellular Ca^2+ ion is a very important second messenger of G protein-coupled receptor signaling pathway. […] Fluo-4 is a Ca^2+ ion-specific fluorescent probe that binds quantitatively to Ca^2+ ions and emits fluorescence. Therefore, the agonistic or antagonistic activity of the compound can be detected in a 96-well or 384-well flat-bottomed microplate using a fluorescence assay.
Detection of receptor inhibitory effect by GPR84 antagonist: After incubated with fluorescent dye Fluo-4, GPR84 cells were incubated with different concentrations of antagonistic compounds for a period of time to occupy the binding site of agonist to GPR84 (antagonistic binding site). A certain concentration of agonist (6-OAU) was added to compete with the antagonist compound for binding sites. […] The half-inhibitory concentration (IC50) of the compound was calculated by using GraphPad PRISM software.
The above ingredients were weighed and dissolved in ultrapure water. pH was adjusted to 7.4 by using hydrochloric acid or NaOH solution. The mixture was filtered and stored at 4° C. for one month.
The buffer was prepared on site.
The preparation of each milliliter of dye is as follows. 1 μL of 2 mM Fluo-4 AM was mixed with 10 μL of 3% Cremophor EL, then diluted with 1 mL of calcium buffer and mixed.
The cells were seeded at a density of 40,000 cells/well into a 96-well cell culture plate, and cultured for 24 hours or more to a cell density of 80 to 90% for experimental detection. The culture medium in the well to be tested was removed and 40 μL/well of freshly prepared dye was added and incubated in a 37-degree incubator for 40 min to 50 min.
The compound was formulated during cell incubation (this step can also be carried out in advance). The compound used as antagonist was diluted with calcium buffer freshly prepared before the experiment to 1.5 times of the final working concentration. The compound as agonist was diluted to 3 times of the final working concentration (if the compound is dissolved in DMSO, the final work concentration of DMSO shall not exceed 1%).
After the incubation step was completed, the dye was discarded, and the residue was washed with calcium buffer once and then replaced with 50 μL of calcium buffer containing different concentrations of antagonist and incubated for another 10 min.
As to `O=P(O)(Oc1c2ccccc2cc2ccccc12)Oc1c2ccccc2cc2ccccc12` [CLH472a], the IC50 lay in the range of 100 to 1000 nM.

Consider `O=P(O)(Oc1cc2ccccc2c2ccccc12)Oc1cc2ccccc2c2ccccc12` [CLH472], for which the IC50 is 1000 to 10000 nM.

Still in this assay, the particulars now being: HEK293 cell line transfected with GPR84 and Gα16; agonist 6-OAU; Fluo-4; read-out: IC50 of the compound detected by the GPR84 calcium flow model.
For `O=P(O)(OC1=Cc2ccccc2C2(OCCO2)c2ccccc21)OC1=Cc2ccccc2C2(OCCO2)c2ccccc21` [CLH616a], the IC50 fell in the range of 100 to 1000 nM.

For `COc1ccc2c(c1)C(OP(=O)(O)OC1=Cc3ccccc3Sc3ccc(OC)cc31)=Cc1ccccc1S2` [CLH596c], the IC50 lay within 0.1 to 100 nM.

For `COc1cccc2c1Cc1ccccc1C=C2OP(=O)(O)OC1=Cc2ccccc2Cc2c(OC)cccc21` [CLH560], the IC50 fell in the range of 0.1 to 100 nM.

In the case of `COc1ccc(OC)c2c1Sc1ccccc1C=C2OP(=O)(O)OC1=Cc2ccccc2Sc2c(OC)ccc(OC)c21` [CLH656a], the IC50 fell in the range of 100 to 1000 nM.

As to `O=P(O)(CC1=Cc2ccccc2Sc2ccccc21)CC1=Cc2ccccc2Sc2ccccc21` [XYF532], the IC50 was 1000 to 10000 nM.

Regarding `O=P(O)(OC1=Cc2cccc(Cl)c2Sc2ccccc21)OC1=Cc2cccc(Cl)c2Sc2ccccc21` [XYF604], the IC50 is 100 to 1000 nM.

Turning to `CCOC(=O)C(C)c1ccc2c(c1)C=C(OP(=O)(O)OC1=Cc3cc(C(C)C(=O)OCC)ccc3Sc3ccccc31)c1ccccc1S2` (stereo not drawn) [CLH736], the IC50 lay in the range of 1000 to 10000 nM.

For the compound `CN1c2ccccc2C=C(OP(=O)(O)OC2=Cc3ccccc3N(C)c3ccccc32)c2ccccc21` [CLH508], the IC50 fell in the range of 100 to 1000 nM.

For `CCc1cccc2c1Sc1cc(F)ccc1C=C2OP(=O)(O)OC1=Cc2ccc(F)cc2Sc2c(CC)cccc21` [XYF628], the IC50 lay in the range of 1000 to 10000 nM.

As for `COc1cccc2c1Sc1ccc(F)cc1C=C2OP(=O)(O)OC1=Cc2cc(F)ccc2Sc2c(OC)cccc21` [XYF632b], the IC50 is 0.1 to 100 nM.

Take `COc1cccc2c1Oc1ccccc1C=C2OP(=O)(O)OC1=Cc2ccccc2Oc2c(OC)cccc21` [XYF564-2a]: the IC50 lay in the range of 0.1 to 100 nM.

For the compound `O=P(O)(O/C1=C/c2ccccc2CCc2ccccc21)O/C1=C/c2ccccc2CCc2ccccc21` [XYF528], the IC50 is 100 to 1000 nM.

With `CC(C)Oc1cccc2c1Sc1ccccc1C=C2OP(=O)(O)OC1=Cc2ccccc2Sc2c(OC(C)C)cccc21` [CLH652], the IC50 fell in the range of 100 to 1000 nM.

`COc1cccc2c1Sc1ccccc1C=C2OP(=O)(O)OC1=Cc2cc(C(C)C(=O)O)ccc2Sc2ccccc21` (stereo not drawn) [CLH638]: the IC50 is 0.1 to 100 nM.

With `COc1ccc2c(c1)Sc1ccccc1C=C2OP(=O)(O)OC1=Cc2ccccc2Sc2cc(OC)ccc21` [CLH596b], the concentration for half-maximal inhibition (IC50) was in the range of 0.1 to 100 nM.

Regarding `CC(C(=O)O)c1ccc2c(c1)C=C(OP(=O)(O)OC1=Cc3cc(C(C)C(=O)O)ccc3Sc3ccccc31)c1ccccc1S2` (stereo not drawn) [CLH680], the IC50 was in the range of 1000 to 10000 nM.

On to `O=P(O)(OC1=Cc2c(F)cccc2Oc2ccccc21)OC1=Cc2c(F)cccc2Oc2ccccc21` [XYF540], for which the IC50 is 0.1 to 100 nM.

For the compound `O=P(O)(OC1=Cc2ccccc2SC2=C1CCCC2)OC1=Cc2ccccc2SC2=C1CCCC2` [CLH544a], the IC50 fell in the range of 100 to 1000 nM.

With `O=P(O)(OC1=Cc2ccccc2Sc2ccccc21)OC1=Cc2ccccc2Sc2ccccc21` [CLH514], the IC50 lay within 0.1 to 100 nM.

As for `O=P(O)(OC1=CC2=C(CCCC2)Sc2ccccc21)OC1=CC2=C(CCCC2)Sc2ccccc21` [CLH544], the IC50 lay in the range of 100 to 1000 nM.

As for `CCOC(=O)C(C)c1ccc2c(c1)C=C(OP(=O)(O)OC1=Cc3ccccc3Sc3c(OC)cccc31)c1ccccc1S2` (stereo not drawn) [CLH666], the IC50 fell in the range of 0.1 to 100 nM.

Consider `COc1ccc2c(c1)Sc1c(OC)cccc1C(OP(=O)(O)OC1=Cc3ccc(OC)cc3Sc3c(OC)cccc31)=C2` [XYF656], for which the IC50 is 0.1 to 100 nM.

Turning to `COc1cccc2c1Sc1cccc(F)c1C=C2OP(=O)(O)OC1=Cc2c(F)cccc2Sc2c(OC)cccc21` [XYF632c], the IC50 fell in the range of 0.1 to 100 nM.

In the case of `O=P(O)(OC1=Cc2cc(F)ccc2Sc2ccccc21)OC1=Cc2cc(F)ccc2Sc2ccccc21` [XYF573b], the IC50 lay within 0.1 to 100 nM.

`C=C1c2ccccc2C=C(OP(=O)(O)OC2=Cc3ccccc3C(=C)c3ccccc32)c2ccccc21` [CLH524a]: the IC50 lay within 100 to 1000 nM.

In the case of `O=P(O)(OC1=Cc2ccccc2Sc2ccc(F)cc21)OC1=Cc2ccccc2Sc2ccc(F)cc21` [CLH572c], the IC50 lay within 100 to 1000 nM.

On to `O=P(O)(OC1=Cc2ccc(F)cc2Sc2ccccc21)OC1=Cc2ccc(F)cc2Sc2ccccc21` [XYF573], for which the IC50 was in the range of 100 to 1000 nM.

For `O=P(O)(OC1=Cc2cccc(F)c2Sc2ccccc21)OC1=Cc2cccc(F)c2Sc2ccccc21` [XYF573a], the IC50 was 100 to 1000 nM.

Consider `O=P(O)(OC1=Cc2c(F)cccc2Sc2ccccc21)OC1=Cc2c(F)cccc2Sc2ccccc21` [XYF573c], for which the IC50 is 0.1 to 100 nM.

For the compound `COc1cccc2c1Sc1cc(F)ccc1C=C2OP(=O)(O)OC1=Cc2ccc(F)cc2Sc2c(OC)cccc21` [XYF632], the concentration for half-maximal inhibition (IC50) lay in the range of 0.1 to 100 nM.

On to `O=P(O)(OC1=Cc2ccccc2Sc2c(F)cccc21)OC1=Cc2ccccc2Sc2c(F)cccc21` [CLH572a], for which the IC50 was 100 to 1000 nM.

As for `CC1c2ccccc2C=C(OP(=O)(O)OC2=Cc3ccccc3C(C)c3ccccc32)c2ccccc21` (stereo not drawn) [CLH528a], the IC50 was in the range of 100 to 1000 nM.

For the compound `O=P(O)(OC1=Cc2cc(Cl)ccc2Sc2ccccc21)OC1=Cc2cc(Cl)ccc2Sc2ccccc21` [XYF604b], the IC50 is 0.1 to 100 nM.

`O=P(O)(OC1=Cc2ccccc2Oc2ccccc21)OC1=Cc2ccccc2Oc2ccccc21` [CLH482]: the IC50 lay within 100 to 1000 nM.

Consider `COc1cccc2c1Sc1ccccc1C=C2OP(=O)(O)OC1=Cc2ccccc2Sc2c(O)cccc21` [CLH582], for which the IC50 lay within 0.1 to 100 nM.

As to `CCc1cccc2c1Sc1c(F)cccc1C=C2OP(=O)(O)OC1=Cc2cccc(F)c2Sc2c(CC)cccc21` [XYF628a], the IC50 lay in the range of 0.1 to 100 nM.

As for `O=P(O)(OC1=Cc2ccsc2Sc2sccc21)OC1=Cc2ccsc2Sc2sccc21` [XYF560], the IC50 fell in the range of 100 to 1000 nM.

Take `O=P(O)(OC1=Cc2ccccc2S(=O)(=O)c2ccccc21)OC1=Cc2ccccc2S(=O)(=O)c2ccccc21` [CLH600]: the IC50 fell in the range of 1000 to 10000 nM.

For `COc1cccc2c1SC1=C(C=C2OP(=O)(O)OC2=CC3=C(SCC3)Sc3c(OC)cccc32)CCS1` [XYF608], the IC50 lay within 0.1 to 100 nM.

On to `O=P(O)(OC1=Cc2ccccc2Sc2c(O)cccc21)OC1=Cc2ccccc2Sc2c(O)cccc21` [CLH568], for which the IC50 was in the range of 0.1 to 100 nM.

For the compound `CCOc1cccc2c1Sc1ccccc1C=C2OP(=O)(O)OC1=Cc2ccccc2Sc2c(OCC)cccc21` [CLH624], the IC50 lay within 0.1 to 100 nM.

As for `O=P(O)(O/C1=C/c2ccccc2/C=C\c2ccccc21)O/C1=C/c2ccccc2/C=C\c2ccccc21` [CLH524], the IC50 is 100 to 1000 nM.

In the case of `COc1cccc2c1Sc1c(OC)cccc1C(OP(=O)(O)OC1=Cc3cccc(OC)c3Sc3c(OC)cccc31)=C2` [XYF656a], the IC50 is 100 to 1000 nM.

Take `Cc1ccc2c(c1)C(OP(=O)(O)OC1=Cc3ccccc3Sc3ccc(C)cc31)=Cc1ccccc1S2` [XYF564c]: the IC50 is 0.1 to 100 nM.

In the case of `CCc1cccc2c1Sc1ccc(F)cc1C=C2OP(=O)(O)OC1=Cc2cc(F)ccc2Sc2c(CC)cccc21` [XYF628b], the IC50 is 100 to 1000 nM.

As to `O=P(O)(OC1=Cc2c(F)cccc2Cc2ccccc21)OC1=Cc2c(F)cccc2Cc2ccccc21` [XYF536c], the IC50 lay within 0.1 to 100 nM.

Turning to `O=P(O)(OC1=Cc2ccccc2[S+]([O-])c2ccccc21)OC1=Cc2ccccc2S(=O)(=O)c2ccccc21` (stereo not drawn) [CLH584], the IC50 was 1000 to 10000 nM.

With `CCc1cccc2c1Sc1ccccc1C=C2OP(=O)(O)OC1=Cc2ccccc2Sc2c(CC)cccc21` [XYF628c], the IC50 is 0.1 to 100 nM.

Regarding `O=P(O)(OC1=Cc2ccccc2Sc2sccc21)OC1=Cc2ccccc2Sc2sccc21` [CLH548], the IC50 lay within 0.1 to 100 nM.

Turning to `O=P(O)(OC1=Cc2ccccc2Sc2cc(F)ccc21)OC1=Cc2ccccc2Sc2cc(F)ccc21` [CLH572b], the IC50 lay within 100 to 1000 nM.

Turning to `COc1cccc2c1Sc1c(F)cccc1C=C2OP(=O)(O)OC1=Cc2cccc(F)c2Sc2c(OC)cccc21` [XYF632a], the IC50 fell in the range of 0.1 to 100 nM.

With `COc1cc2c(cc1OC)C(OP(=O)(O)OC1=Cc3ccccc3Sc3cc(OC)c(OC)cc31)=Cc1ccccc1S2` [CLH656], the IC50 lay in the range of 0.1 to 100 nM.

For orientation: IC50 means the concentration at which inhibition is half-maximal.
